Measured values from patent publication US20160007597A1, “TREATING AGENT FOR PLANT CELL WALLS, SUBSTANCE DELIVERY METHOD USING TREATING AGENT, AND SUBSTANCE DELIVERY SYSTEM” (SUNTORY HOLDINGS LIMITED, priority 2013, published 2016).
Like-named read-outs stand apart in the source and are kept apart here.

Assays:
onion epidermal cells = test: Cell wall permeability: intracellular uptake of GFP or GFP-FT in onion bulb epidermal cells after trypsin treatment (fluorescence microscopy); type: cell-based; conditions: 0.1 mg GFP, 20 μM R9 peptide
Method: Various test solutions containing a fluorescent protein, GFP or GFP-FT, and the R9 peptide were prepared and applied to onion bulbs for verification of GFP uptake. The ingredients of the test solutions verified are shown below:
salt (NaCl), acidic buffer (citric acid), organic solvent (toluene, ethanol), cell wall lyase (pectolyase), surfactant (saponin, Silwet L-77, Tween 20, Triton X-100, CHAPS, CTAB, SDS), chelator (EGTA, EDTA, CDTA, BAPTA), DMSO, and glycerol.
Onion bulbs were cut into boat-shaped pieces, and test solutions (100 μl each) prepared at various concentration conditions (0.1× PBS, 1 to 100 mM chelator, 0.005% to 0.05% surfactant, 0.1 mg GFP, 20 μM R9 peptide) were applied to their surface. Each sample was allowed to stand in a dish at room temperature for 12 hours while being kept under humid conditions. Then, the test solutions were removed and the samples were washed with distilled water. After a 0.25% trypsin solution was applied in 100 μl volumes, the samples were allowed to stand for 30 minutes. After removal of the trypsin solution, the samples were washed with distilled water and their epidermal cell layers were peeled to prepare specimens, which were then observed for intracellular uptake of GFP under a fluorescence microscope (Leica, DM6000B).

leaves = test system: leaves
Method: To verify the migration of the FT protein applied to leaves, the shoot apex after application was sampled and analyzed by Western blotting in an attempt to detect the FT protein. To ensure long-term application to leaves, concentration studies were conducted for EDTA.

[1] = test system: torenia bud cuttings (shoot apex); test: Migration of FT protein applied to leaves to the shoot apex, detected by Western blotting; type: in vivo; conditions: Condition 3: FT protein, 20 μM R9 peptide, 0.1× PBS, 1 mM EDTA, 0.005% Silwet L-77, applied to leaves twice; sampled one week after the first application
Method: Bud cuttings were prepared from torenia's branches each including the shoot apex. These branches were cut to an even length of approximately 10 cm containing three nodes or so, each of which was put into a 5 ml tube containing 4 ml of 0.1× PBS, followed by covering the mouth of each tube with a parafilm to avoid evaporation of PBS. Four bud cuttings were prepared for each test group, and test solutions (90 μl each) prepared under three conditions (Condition 1: 0.1× PBS, 1 mM EDTA, 0.005% Silwet L-77; Condition 2: 33 μg/ml FT protein, 0.1× PBS, 1 mM EDTA, 0.005% Silwet L-77; Condition 3: FT protein, 20 μM R9 peptide, 0.1× PBS, 1 mM EDTA, 0.005% Silwet L-77) were applied by being spread thinly over leaves at a position which was two nodes (about 3 cm) apart from the shoot apex. After air drying, these samples were maintained at 25° C. in a thermostatic incubator.
After 3 days, the test solutions were applied again, and after one week of the first application, the shoot apexes were sampled. Proteins were extracted from the shoot apex samples by the acetone method. 250 μl of an extraction buffer (10 mM Tris-HCl (pH 8.0), 0.1% CHAPS, 4.5 mM NaCl, 0.1 mM DTT, 0.2 mM EDTA, complete ULTRA1 tablets (Roche Diagnostics)) was added to each shoot apex sample obtained from 4 bud cuttings, followed by sufficient homogenization in a mixer together with zirconia beads of 4 mm diameter. […]

[2] = test system: in vitro shoots of torenia; test: Induction of flower buds in in vitro shoots of torenia; type: in vivo; conditions: torenia in test tubes; 33 μg/ml FT protein, 20 μM R9 peptide, 0.1× PBS, 1 mM EDTA, 0.005% Silwet L-77; applied five times every 2 to 3 days
Method: (§1) In most cases, in vitro shoots of torenia will form no flower buds in test tubes. Likewise, in vitro shoots of petunia will form no flower buds under short-day conditions. In these in vitro shoots, the FT protein was applied to their leaf surface in an attempt to induce flower buds. To the shoot apex and leaf surface of torenia and petunia cultivated in test tubes, a test solution (33 μg/ml FT protein, 20 μM R9 peptide, 0.1× PBS, 1 mM EDTA, 0.005% Silwet L-77) was applied by being spread thinly to ensure a uniform distribution. Application was repeated five times every 2 to 3 days, and culture was also continued thereafter. As a result, flower buds were formed at around 40 days after application and eventually brought into flower in test tubes (FIG. 4).

[3] = test system: in vitro shoots of petunia; test: Induction of flower buds in in vitro shoots of petunia; type: in vivo; conditions: petunia in test tubes; 33 μg/ml FT protein, 20 μM R9 peptide, 0.1× PBS, 1 mM EDTA, 0.005% Silwet L-77; applied five times every 2 to 3 days
Method: as §1

protoplasts of torenia = test: GFP uptake into torenia protoplasts in the presence of R9 peptide (fluorescence microscopy); type: cell-based; conditions: 0.1 mg GFP
Method: To verify that the R9 peptide was also evenly effective for plant cells other than cultured cells, protoplasts of torenia were used and observed for their uptake of green fluorescent protein (GFP) in the presence of the R9 peptide. Torenia leaves (0.5 g) were treated in an enzyme solution (1% Onozuka RS, 0.1% pectolyase Y-23, 0.45 M mannitol) at 30° C. for 2 hours to prepare protoplasts. The protoplasts were washed with 0.45 M mannitol and then divided into 50 μl aliquots, followed by centrifugation to prepare protoplasts. The protoplasts were each suspended in 50 μl of a buffer (0.45 M mannitol, 1× PBS, 0.1 mg GFP, (0, 20, 200 μM) R9 peptide) and observed for intracellular migration of GFP under a fluorescence microscope (FIG. 1).

[4] = combination of 1 to 50 mM EDTA or EGTA and 0.005% to 0.01% Silwet L-77 or Tween 20, 12 hours

Compound: polyoxyethylene sorbitan monolaurate [Tween 20]
- intracellular GFP fluorescence after trypsin treatment (onion epidermal cells; [4]): granular GFP fluorescence was strongly observed

Compound: O=C(O)CN(CCN(CC(=O)O)CC(=O)O)CC(=O)O [EDTA, ethylenediaminetetraacetic acid]
- intracellular GFP fluorescence after trypsin treatment (onion epidermal cells; [4]): granular GFP fluorescence was strongly observed
- damage to leaves (leaves; 1 mM EDTA): able to be used without any problems
- damage to leaves (leaves; 100 mM EDTA): cause damage to leaves

Compound: FT protein: FLOWERING LOCUS T protein, promoter for flowering in whole plants (florigen)
- FT protein signal in the shoot apex (Western blotting) [1]: FT protein signals were able to be detected in the shoot apex
- time of flower bud formation after application [2]: around 40 days
- time of flower bud formation after application [3]: around 40 days

Compound: R9 peptide: cell penetrating peptide composed of 9 arginine residues (RRRRRRRRR)
- number of cells showing GFP uptake with increase in R9 peptide concentration (protoplasts of torenia; 0, 20, 200 μM R9 peptide): cells showing GFP uptake were confirmed to increase in number
- GFP uptake into protoplasts (protoplasts of torenia; 200 μM R9 peptide, 0.45 M mannitol, 1× PBS): good GFP uptake was observed
- intracellular GFP fluorescence after trypsin treatment (onion epidermal cells; chelator-free and surfactant-free test solution, 12 hours at room temperature): no fluorescence was observed within the cells

Compound: O=C(O)CN(CCOCCOCCN(CC(=O)O)CC(=O)O)CC(=O)O [EGTA, O,O′-bis(2-aminoethyl)ethylene glycol-N,N,N′,N′-tetraacetic acid]
- intracellular GFP fluorescence after trypsin treatment (onion epidermal cells; [4]): granular GFP fluorescence was strongly observed
